Data published in patent publication US3931198A, “2-Amino-5-spiro substituted oxazoline-4-one compounds” (Abbott Laboratories, priority 1973, dated 1976).

Legend:
[1] = LD50, lethal dosage at which 50 percent of the animals expire; conditions: mouse, in vivo, ip; mice, intraperitoneal injection unless otherwise indicated
Description: (§1) Table VI below details the activity of the various species of this series along with the dosages utilized expressed in mg/kg of body weight and the lethal dosage at which 50 percent of the animals expire (^LD 50) for each of the compounds. Unless otherwise indicated, the dosage and the ^LD 50 were administered by intraperitoneal injection. It is to be understood, of course, that the particular route of administration is not critical to the manifestation of biological effects.

[2] = system: central nervous system; assay: CNS activity (depressant or stimulant) in test mice; format: in vivo; conditions: i.p.
Description: as §1

[3] = system: rats; assay: Learning and retention (escape time, jump out test) after electroconvulsive shock on a modified Cook-Weidley apparatus; format: in vivo; conditions: for Mean Escape Time, Retention Trial: 1 hour after last acquisition trial
Description: In addition to the foregoing activity, the administration of some of these novel compounds to warm-blooded animals results in an increased rate of learning by the animal coupled with a prolonged period of retention of the learned behavior.
The behavioral effects resulting from the administration of these compounds to rats were evaluated on a modified Cook-Weidley apparatus (L. Cook and E. Weidley, Ann. N.Y. Acad. Sci., 66, 790, 1957). The apparatus consists of a chamber with a grid flooring and an escape platform outside the chamber. The electric shock to the grid floor was controlled by a rheostat mechanism and scrambler. Rats were divided into 2 groups for each test trial. One group was administered saline as the control and the other group the test compound about 1/2 hour prior to electroconvulsive shock. It is known that electroconvulsive shock induces a state of proactive amnesia or an impaired learning rate (Deutsch, J.A., 1962, Ann. Rev. Psychol., 24, 259). Then, 15 minutes after electroconvulsive shock, the rats were given 10 acquisition trials on the jump out test to measure learning rates. Each acquisition trial consisted of 15 seconds in the chamber without any stimulation followed by 10 seconds of buzzer stimulation and culminated by 5 seconds of buzzer-plus-shock stimulation. The time from entrance into the apparatus until the rat jumps out is recorded as the escape time. Retention of the learned behavioral pattern was tested by repeating the test one hour after the last acquisition trial. The test sequence for each trial was terminated upon successful completion of the task, e.g., jumping out of the chamber. EFFECT OF 2-AMINO-8-METHYL-1-OXA-3,8-DIAZASPIRO [4,5]DEC-2-EN-4-ONE INTRAPERITONEAL ADMINISTRATION Mean Escape Time -- Sec. Trial Test Cpd. -- 10 mg/kg Control ______________________________________ 1 29.8 ± 0.3 30.0 ± 0.0 2 29.5 ± 0.5 29.3 ± 0.8 3 13.8 ± 1.7 26.0 ± 2.4 4 12.0 ± 2.1 22.0 ± 3.6 5 7.0 ± 1.6 22.3 ± 3.8 6 7.8 ± 1.5 18.5 ± 1.9 7 6.5 ± 1.6 18.0 ± 2.3 8 7.0 ± 2.2 13.0 ± 2.9 9 10.8 ± 3.0 15.6 ± 2.1 10 9.0 ± 1.2 13.9 ± 1.7 Retention Trial -- 1 hour after last Acquisition Trial: 13.8 ± 1.4 15.8 ± 3.3 EFFECT OF 2-AMINO-7,7,9-TRIMETHYL-1-OXA-3-AZASPIRO [4,5]DEC-2-EN-4-ONE INTRAPERITONEAL ADMINISTRATION Mean Escape Time -- Sec. Trial Test Cpd. 20 mg/kg Control ______________________________________ 1 30.0 ± 0.0 30.0 ± 0.0 2 29.0 ± 0.4 29.5 ± 0.2 3 21.2 ± 3.0 19.7 ± 5.2 4 17.7 ± 5.4 20.2 ± 5.3 5 14.7 ± 1.8 18.0 ± 2.7 6 18.0 ± 3.9 18.5 ± 3.6 7 10.0 ± 2.1 20.2 ± 4.7 8 5.5 ± 1.8 16.5 ± 3.8 9 6.7 ± 2.5 18.7 ± 5.0 10 7.2 ± 2.8 13.7 ± 4.4 Retention Trial -- 1 hour after last Acquisition Trial: 8.0 ± 2.6 20.2 ± 3.3 EFFECT OF 2-AMINO-7,9-DIMETHYL-1-OXA-3-AZASPIRO [4,5]DEC-2-EN-4-ONE ORAL ADMINISTRATION Mean Escape Time -- Sec. Trial Test Cpd. -- 20 mg/kg Control ______________________________________ 1 30.0 ± 0.0 30.0 ± 0.0 2 29.2 ± 0.4 29.7 ± 0.2 3 20.0 ± 4.3 27.2 ± 1.8 4 7.5 ± 2.9 19.7 ± 2.4 5 4.7 ± 0.8 16.0 ± 3.2 6 7.2 ± 2.0 14.7 ± 3.6 7 8.0 ± 1.6 18.7 ± 4.5 8 10.5 ± 3.7 11.0 ± 2.6 9 7.0 ± 1.2 13.0 ± 3.2 10 7.5 ± 2.1 15.5 ± 4.1 Retention Trial -- 1 hour after last Acquisition Trial: 6.7 ± 1.4 15.7 ± 5.0 ______________________________________

For `NC1=NC(=O)C2(CCC3CCCCC3C2)O1` (stereo not drawn) [2'-amino-octahydrospiro[naphthalene-2(1H),5'-[2]oxazolin]-4'-one], the LD50 [1] was over 1000 mg/kg and the Activity ([2]; dose 500 mg/kg) was “depressant”.

In the case of `NC1=NC(=O)C2(CC3CCC2C3)O1` (stereo not drawn) [2'-aminospiro[norbornane-2,5'-[2]oxazolin]-4'-one], the LD50 [1] is reported as over 1000 mg/kg and the Activity ([2]; dose 500 mg/kg) is reported as “depressant”.

For `NC1=NC(=O)C2(CCNCC2)O1` [2-amino-1-oxa-3,8-diazaspiro[4,5]dec-2-en-4-one], the LD50 [1] was over 1000 mg/kg and the Activity ([2]; dose 50 mg/kg) was “depressant”.

In the case of `NC1=NC(=O)C2(CCCC2)O1` [2-amino-1-oxa-3-azaspiro[4,4]non-2-en-4-one], the LD50 [1] is reported as over 1000 mg/kg and the Activity ([2]; dose 500 mg/kg) is reported as “depressant”.

For `NC1=NC(=O)C2(CCCCC2)O1` [2-amino-1-oxa-3-azaspiro[4,5]dec-2-en-4-one], the LD50 [1] was over 1000 mg/kg and the Activity ([2]; dose 200 mg/kg) was “depressant”.

In the case of `NC1=NC(=O)C2(CCCCCC2)O1` [2-amino-1-oxa-3-azaspiro[4,6]undec-2-en-4-one], the LD50 [1] is reported as over 1000 mg/kg and the Activity ([2]; dose 500 mg/kg) is reported as “depressant”.

With `NC1=NC(=O)C2(CCCCCCC2)O1` [2-amino-1-oxa-3-azaspiro[4,7]dodec-2-en-4-one] the LD50 [1] was over 1000 mg/kg and the Activity ([2]; dose 500 mg/kg) was “depressant”.

With `CC1CC(C)(C)CC2(C1)OC(N)=NC2=O` (stereo not drawn) [2-amino-7,7,9-trimethyl-1-oxa-3-azaspiro[4,5]dec-2-en-4-one] the LD50 [1] was over 750 mg/kg, the Activity ([2]; dose 0.1 mg/kg) was “stimulant” and the “Mean Escape Time, Retention Trial” value ([3]; intraperitoneal, 20 mg/kg) was 8.0 ± 2.6 s. The “Mean Escape Time” value ([3]; intraperitoneal, 20 mg/kg, acquisition trial 1) was 30.0 ± 0.0 s, the “Mean Escape Time” value ([3]; intraperitoneal, 20 mg/kg, acquisition trial 2) was 29.0 ± 0.4 s and the “Mean Escape Time” value ([3]; intraperitoneal, 20 mg/kg, acquisition trial 3) was 21.2 ± 3.0 s. For the same molecule, the “Mean Escape Time” value ([3]; intraperitoneal, 20 mg/kg, acquisition trial 4) was 17.7 ± 5.4 s, the “Mean Escape Time” value ([3]; intraperitoneal, 20 mg/kg, acquisition trial 5) was 14.7 ± 1.8 s and the “Mean Escape Time” value ([3]; intraperitoneal, 20 mg/kg, acquisition trial 6) was 18.0 ± 3.9 s. For the same molecule, the “Mean Escape Time” value ([3]; intraperitoneal, 20 mg/kg, acquisition trial 7) was 10.0 ± 2.1 s, the “Mean Escape Time” value ([3]; intraperitoneal, 20 mg/kg, acquisition trial 8) was 5.5 ± 1.8 s and the “Mean Escape Time” value ([3]; intraperitoneal, 20 mg/kg, acquisition trial 9) was 6.7 ± 2.5 s. The “Mean Escape Time” value ([3]; intraperitoneal, 20 mg/kg, acquisition trial 10) was 7.2 ± 2.8 s.

With `CC1CC2(CC(C)N1C)OC(N)=NC2=O` (stereo not drawn) [2-amino-7,8,9-trimethyl-1-oxa-3,8-diazaspiro[4,5]-2-en-4-one] the LD50 [1] was over 500 mg/kg and the Activity ([2]; dose 20 mg/kg) was “depressant”.

For `CC1CC2(CC(C)C1C)OC(N)=NC2=O` (stereo not drawn) [2-amino-7,8,9-trimethyl-1-oxa-3-azaspiro[4,5]dec-2-en-4-one], the LD50 [1] was over 1000 mg/kg and the Activity ([2]; dose 200 mg/kg) was “depressant”.

With `CC1CC(C)CC2(C1)OC(N)=NC2=O` (stereo not drawn) [2-amino-7,9-dimethyl-1-oxa-3-aza-spiro[4,5]dec-2-en-4-one] the LD50 [1] was about 300 mg/kg, the Activity ([2]; dose 1 mg/kg) was “stimulant” and the “Mean Escape Time, Retention Trial” value ([3]; oral, 20 mg/kg) was 6.7 ± 1.4 s. For the same molecule, the “Mean Escape Time” value ([3]; oral, 20 mg/kg, acquisition trial 1) was 30.0 ± 0.0 s, the “Mean Escape Time” value ([3]; oral, 20 mg/kg, acquisition trial 2) was 29.2 ± 0.4 s and the “Mean Escape Time” value ([3]; oral, 20 mg/kg, acquisition trial 3) was 20.0 ± 4.3 s. For the same molecule, the “Mean Escape Time” value ([3]; oral, 20 mg/kg, acquisition trial 4) was 7.5 ± 2.9 s, the “Mean Escape Time” value ([3]; oral, 20 mg/kg, acquisition trial 5) was 4.7 ± 0.8 s and the “Mean Escape Time” value ([3]; oral, 20 mg/kg, acquisition trial 6) was 7.2 ± 2.0 s. For the same molecule, the “Mean Escape Time” value ([3]; oral, 20 mg/kg, acquisition trial 7) was 8.0 ± 1.6 s, the “Mean Escape Time” value ([3]; oral, 20 mg/kg, acquisition trial 8) was 10.5 ± 3.7 s and the “Mean Escape Time” value ([3]; oral, 20 mg/kg, acquisition trial 9) was 7.0 ± 1.2 s. For the same molecule, the “Mean Escape Time” value ([3]; oral, 20 mg/kg, acquisition trial 10) was 7.5 ± 2.1 s.

In the case of `CC1CCCC2(C1)OC(N)=NC2=O` (stereo not drawn) [2-amino-7-methyl-1-oxa-3-aza-spiro[4,5]dec-2-en-4-one], the LD50 [1] is reported as about 750 mg/kg and the Activity ([2]; dose 200 mg/kg) is reported as “depressant”.

In the case of `NC1=NC(=O)C2(CCN(Cc3ccccc3)CC2)O1` [2-amino-8-benzyl-1-oxa-3,8-diazaspiro[4,5]dec-2-en-4-one], the LD50 [1] is reported as over 1000 mg/kg and the Activity ([2]; dose 200 mg/kg) is reported as “depressant”.

In the case of `CC(C)N1CCC2(CC1)OC(N)=NC2=O` [2-amino-8-isopropyl-1-oxa-3,8-diazaspiro-[4,5]dec-2-en-4-one], the LD50 [1] is reported as 1000 mg/kg and the Activity ([2]; dose 100 mg/kg) is reported as “depressant”.

For `CC1CCC2(CC1)OC(N)=NC2=O` (stereo not drawn) [2-amino-8-methyl-1-oxa-2-aza-spiro[4,5]dec-2-en-4-one], the LD50 [1] was over 1000 mg/kg and the Activity ([2]; dose 500 mg/kg) was “depressant”.

For `CN1CCC2(CC1)OC(N)=NC2=O` [2-amino-8-methyl-1-oxa-3,8-diazaspiro[4,5]dec-2-en-4-one], the LD50 [1] was over 1000 mg/kg, the Activity ([2]; dose 10 mg/kg) was “stimulant” and the “Mean Escape Time, Retention Trial” value ([3]; intraperitoneal, 10 mg/kg) was 13.8 ± 1.4 s. The “Mean Escape Time” value ([3]; intraperitoneal, 10 mg/kg, acquisition trial 1) was 29.8 ± 0.3 s, the “Mean Escape Time” value ([3]; intraperitoneal, 10 mg/kg, acquisition trial 2) was 29.5 ± 0.5 s and the “Mean Escape Time” value ([3]; intraperitoneal, 10 mg/kg, acquisition trial 3) was 13.8 ± 1.7 s. The “Mean Escape Time” value ([3]; intraperitoneal, 10 mg/kg, acquisition trial 4) was 12.0 ± 2.1 s, the “Mean Escape Time” value ([3]; intraperitoneal, 10 mg/kg, acquisition trial 5) was 7.0 ± 1.6 s and the “Mean Escape Time” value ([3]; intraperitoneal, 10 mg/kg, acquisition trial 6) was 7.8 ± 1.5 s. The “Mean Escape Time” value ([3]; intraperitoneal, 10 mg/kg, acquisition trial 7) was 6.5 ± 1.6 s, the “Mean Escape Time” value ([3]; intraperitoneal, 10 mg/kg, acquisition trial 8) was 7.0 ± 2.2 s and the “Mean Escape Time” value ([3]; intraperitoneal, 10 mg/kg, acquisition trial 9) was 10.8 ± 3.0 s. The “Mean Escape Time” value ([3]; intraperitoneal, 10 mg/kg, acquisition trial 10) was 9.0 ± 1.2 s.

In the case of `NC1=NC(=O)C2(CCN(CCc3ccccc3)CC2)O1` [2-amino-8-phenethyl-1-oxa-3,8-diazaspiro-[4,5]dec-2-en-4-one], the LD50 [1] is reported as over 1000 mg/kg and the Activity ([2]; dose 200 mg/kg) is reported as “depressant”.

For `NC1=NC(=O)C2(CCC2)O1` [6-amino-5-oxa-7-azaspiro[3,4]oct-6-en-8-one], the LD50 [1] was over 500 mg/kg and the Activity ([2]; dose 200 mg/kg) was “depressant”.
